Test results as given in US6448062B1, “Simultaneous cleaning and decontaminating compositions and methods” (priority 1998, dated 2002).
Read-outs that look alike come from different tables or passages of the source.

Legend:
[1] = test system: Mycobacterium bovis (ATCC 35743); assay type: cell-based
Azocasein [2] = assay: In-situ protease activity assay: azocasein hydrolysis (Abs390) in H2O2/enzyme solutions; conditions: for Absorbance (normalized with dilution factor) of hydrolyzed Azocasein solution at 390 nm: pH 8.5, 23° C., 1% azocasein; for Abs390 hydrolyzed azocasein solution: human chymotrypsin experiment, 23° C.
Description: Solutions of 7.5%^w/v H2O2 at various pH levels were prepared by adjusting the pH of 35%^w/w H2O2 solution (Degussa) with 10 mM K3PO4 in a volumetric flask in the presence of K2HPO4 (phosphate buffer, PB). The solution was diluted with 10 mM KH2PO4 solution of the same pH. […] Azocasein powder was added to the H2O2/Alcalase® mixed solutions to yield 0.4%^w/v azocasein. After 30 min at 23° C., 5 ml azocasein solution was mixed with 5 ml 10%^w/v TCA solution. Precipitates were removed after 15 min by filtration, and the supernatant Abs390 was measured.
One half hour prior to various time points (listed in Tables 5a-d), azocasein powder was added to the solution in an amount of 0.4% of the total solution weight. Abs390 of the solution was measured as in Example 4 except that the supernatant was diluted 6-7 fold to avoid saturation of the UV spectrophotometer.
An additional experiment employing the same method was conducted with human chymotrypsin.

[3] = 25 minutes contact at 20° C.; cited from earlier work
[4] = test system: spores of Bacillus subtilis (ATCC #19659); assay: AOAC test for Sporicidal Activity of Disinfectants, porcelain penicylinders, no organic soil load; assay type: cell-based; conditions: for Results: positive penicylinders: exposure 4 hours
Azocasein [5] = assay: Azocasein hydrolysis (Abs390) by human trypsin or chymotrypsin in PAA/H2O2; conditions: 23° C.
Description: The activity for the PAA/H2O2 solution alone as a control is also given. […] A volume of 4.05 ml of 10 mM K3PO4 buffer was combined with 0.45 ml initial trypsin buffer solution and 45 mg Azocasein to prepare the trypsin/phosphate buffer solution for the test.
A 0.22%^w/v PAA/1.17%^w/v H2O2 solution was prepared using a dilution of Degussa's 4.9%^w/w PAA/26.6%^w/w H2O2 in a volumetric flask. A volume of 4.05 ml of the latter solution was mixed with 0.45 ml initial trypsin/phosphate buffer solution and 45 mg Azocasein powder.
At 2.8 and 7 h, 1.5 ml sample aliquots were removed from the above three solutions and reacted with 1.5 ml of 10%^w/v trichloroacetic acid stop reagent. After incubating for 15-20 min, the solutions were filtered using Whatman #3 filter paper with a syringe and a Gelman 13 mm filter holder. The filtered solutions were then analyzed with a Shimadzu UV-visible 1601 spectrophotometer Abs390.
An additional example with human chymotrypsin follows. The solutions were similarly prepared as above.

Azocasein [6] = assay: Enzyme activity in 0.368% PAA/2% H2O2, modified Novo azocasein method
Description: In a 100 ml volumetric flask, a solution was prepared using 7.5 ml of 4.9%^w/w (Degussa) PAA, 1 ml enzyme, and diluted with 0.2 M tris(hydroxymethyl)aminomethane to control the pH at 8.5 to yield a final concentration of 0.368%^w/v PAA/2%^w/v H2O2. […] A timer was started as soon as the combinations of enzymes and PAA/H2O2 were mixed. At periodic intervals, aliquots of the enzyme/PAA/H2O2 solutions were removed and diluted 64 times to react with the 0.6%^w/v Azocasein substrate solution in a water bath at the modified temperature of 30° C. for 30 min. After stopping the reaction with 10% TCA and filtering the precipitate, the supernatants were analyzed on a spectrophotometer at 390 nm.

For `OO` [6% H2O2 pH 1.8, hydrogen peroxide], the “% Reduction” value ([1]; contact time 5 min) was 98.65%, the “log10 Reduction” value ([1]; contact time 5 min) was 1.87 and the “% Reduction” value ([1]; contact time 10 min) was 99.25%. The “log10 Reduction” value ([1]; contact time 10 min) was 2.13, the “% Reduction” value ([1]; contact time 15 min) was 99.51% and the “log10 Reduction” value ([1]; contact time 15 min) was 2.31. The “% Reduction” value ([1]; contact time 20 min) was 99.38% and the “log10 Reduction” value ([1]; contact time 20 min) was 2.21.

In the case of `c1ccc2[nH]nnc2c1` [Benzotriazole, 1,2,3-benzotriazole], the “Absorbance (normalized with dilution factor) of hydrolyzed Azocasein solution at 390 nm” value (Azocasein [2]; 7.4 mM Na3PO4, 0.5 h) is reported as 0.0986 and the “Absorbance (normalized with dilution factor) of hydrolyzed Azocasein solution at 390 nm” value (Azocasein [2]; 7.4 mM Na3PO4, 4.5 h) is reported as 0.1536.

For `CC(=O)OO` [PAA, peracetic acid], the “minimum effective concentration for high-level disinfection” value [3] is given as 0.05 %w/w.

With `OO` [Sample 10, hydrogen peroxide] the “Results: positive penicylinders” value [4] was 0 positive.

With `OO` [Sample 11, hydrogen peroxide] the “Results: positive penicylinders” value [4] was 0 positive.

In the case of `OO` [Solutions of 7.5% H2O2 alone, hydrogen peroxide], the “exposure at which sporicidal (no positive penicylinders)” value [4] is reported as at most 4 h.

With Chymotrypsin the “Absorbance at 390 nm of hydrolyzed Azocasein solution” value (shortened to “Absorbance at 390 nm”) (Azocasein [5]; pH 7.25, 2 h) was 2.716, the “Absorbance at 390 nm” value (Azocasein [5]; pH 7.25, 4 h) was 3.674 and the “Absorbance Ratio of Chymotrypsin/Azocasein solutions with and without 7.5% H2O2” value (Azocasein [2]; 2 h) was 0.308. The “Absorbance Ratio of Chymotrypsin/Azocasein solutions with and without 7.5% H2O2” value (Azocasein [2]; 4 h) was 0.316, the “Abs390 hydrolyzed azocasein solution” value (Azocasein [2]; pH 7.75, 2 h) was 2.541 and the “Abs390 hydrolyzed azocasein solution” value (Azocasein [2]; pH 7.75, 4 h) was 3.653.

For Trypsin: human trypsin (Sigma), the “Absorbance at 390 nm” value (Azocasein [5]; pH 7.5, 1% azocasein, 2.8 h) was 1.4254 and the “Absorbance at 390 nm” value (Azocasein [5]; pH 7.5, 1% azocasein, 7 h) was 1.5588.

B1: Alcalase ® 2.5 L: commercial subtilisin A liquid concentrate, 2.5 Anson units per gram (Novo Nordisk) (protein, UniProt P00780 106-379, looked up)
Subtilisin Carlsberg: AQTVPYGIPLIKADKVQAQGFKGANVKVAVLDTGIQASHPDLNVVGGASFVAGEAYNTDGNGHGTHVAGTVAALDNTTGVLGVAPSVSLYAVKVLNSSGSGSYSGIVSGIEWATTNGMDVINMSLGGASGSTAMKQAVDNAYAKGVVVVAAAGNSGSSGNTNTIGYPAKYDSVIAVGAVDSNSNRASFSSVGAELEVMAPGAGVYSTYPTNTYATLNGTSMASPHVAGAAALILSKHPNLSASQVRNRLSSTATYLGSSFYYGKGLINVEAAAQ
modifications: commercial liquid concentrate
With B1 the decrease in activity (Azocasein [6]; 0.368% PAA/2% H2O2, after 7.5 hours) was 13%, the “Absorbance (proteolytic, 390 nm)” value (Azocasein [6]; 0.368% PAA/2% H2O2, pH 8.5, 0 h) was 0.6534 and the “Absorbance (proteolytic, 390 nm)” value (Azocasein [6]; 0.368% PAA/2% H2O2, pH 8.5, 3.2 h) was 0.6417. For the same molecule, the “Absorbance (proteolytic, 390 nm)” value (Azocasein [6]; 0.368% PAA/2% H2O2, pH 8.5, 6.5 h) was 0.6729 and the “Absorbance (proteolytic, 390 nm)” value (Azocasein [6]; 0.368% PAA/2% H2O2, pH 8.5, 7.5 h) was 0.5689.
